Results on 22 compounds are retold here after PubChem BioAssay AID330 (DTP/NCI, 2004).

The assay relates to P388 leukemia ip, CD2F1 mice, survival T/C. As to the kind of experiment: NCI In Vivo Anticancer Drug Screen. Data for tumor model P388 Leukemia (intraperitoneal) in CD2F1 (CDF1) mice. Particulars: endpoint: median survival time, higher = longer survival. In a few lines:
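Mice carrying the transplanted tumor received test compound or vehicle. Survival was recorded in each group, and the value is the treated-group measurement divided by that of the vehicle-treated control group.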

Setting [1] is: dose: 100.0 mg/kg/injection, schedule: Q01DX009 (ip), vehicle: saline with Tween-80.
The mark [2] stands for this setting: dose: 200.0 mg/kg/injection, schedule: Q01DX009 (ip), vehicle: saline with Tween-80.
[3] abbreviates: dose: 50.0 mg/kg/injection, schedule: Q01DX009 (ip), vehicle: saline.
The mark [4] stands for this setting: dose: 100.0 mg/kg/injection, schedule: Q01DX009 (ip), vehicle: saline.
Where [5] appears, read: dose: 200.0 mg/kg/injection, schedule: Q01DX009 (ip), vehicle: saline.
Setting [6] is: dose: 100.0 mg/kg/injection, schedule: Q04DX003 (ip), vehicle: Klucel (hydroxypropylcellulose) (HPC).
[7] abbreviates: dose: 50.0 mg/kg/injection, schedule: Q01DX005 (ip), vehicle: saline with Tween-80.
The mark [8] stands for this setting: dose: 7.5 mg/kg/injection, schedule: Q01DX005 (ip), vehicle: saline with Tween-80.
The mark [9] stands for this setting: dose: 15.0 mg/kg/injection, schedule: Q01DX005 (ip), vehicle: saline with Tween-80.
[10] abbreviates: dose: 50.0 mg/kg/injection, schedule: Q01DX009 (ip), vehicle: saline with Tween-80.
The mark [11] stands for this setting: dose: 3.75 mg/kg/injection, schedule: Q01DX005 (ip), vehicle: saline with Tween-80.
Setting [12] is: dose: 60.0 mg/kg/injection, schedule: Q01DX005 (ip), vehicle: saline.
Setting [13] is: dose: 120.0 mg/kg/injection, schedule: Q01DX005 (ip), vehicle: saline.
[14] abbreviates: dose: 240.0 mg/kg/injection, schedule: Q01DX005 (ip), vehicle: saline.

Values joined by “and” are separate entries in the source; they are usually repeats but may differ in a detail not shown here. Identical values can stand only once. Inconclusive results and toxic doses are left out.

In the case of `COc1ccc2ccccc2c1/C=N/N1CCCCC1`, the T/C by setting is: under setting [1], 100 % of control; under setting [2], 104 % of control; (dose: 400.0 mg/kg/injection, schedule: Q01DX009 (ip), vehicle: saline with Tween-80) 95 % of control.

Regarding `CCN(CC)CCNc1cc2c(c3sc4ccccc4c(=O)c13)CCCC2`, the T/C is, setting by setting: (dose: 7.8 mg/kg/injection, schedule: Q01DX005 (ip), vehicle: other) 113 % of control; (dose: 15.6 mg/kg/injection, schedule: Q01DX005 (ip), vehicle: other) 110 % of control; (dose: 31.3 mg/kg/injection, schedule: Q01DX005 (ip), vehicle: other) 113 % of control; (dose: 62.5 mg/kg/injection, schedule: Q01DX005 (ip), vehicle: other) 101 % of control; (dose: 125.0 mg/kg/injection, schedule: Q01DX005 (ip), vehicle: other) 104 % of control.

In the case of `CCOC(=O)CSCC(N)=O`, the T/C reads like this: under setting [3], 100 % of control; under setting [4], 100 % of control; under setting [5], 98 % of control.

`CC1(C#N)CCCC(c2ccccc2)(c2ccccc2)C1=O` (stereo unspecified): the T/C runs as follows: under setting [6], 103 % of control; (dose: 200.0 mg/kg/injection, schedule: Q04DX003 (ip), vehicle: Klucel (hydroxypropylcellulose) (HPC)) 98 % of control; (dose: 400.0 mg/kg/injection, schedule: Q04DX003 (ip), vehicle: Klucel (hydroxypropylcellulose) (HPC)) 100 % of control.

With `COc1ccc2c(c1)CC[n+]1c-2ccc2c1CCC2=O`, the T/C under setting [7] is 111 % of control.

Turning to `CCN(CC)C1=C(C)C2C(C)(C)N=NC12C(=O)OC` (stereo unspecified), the T/C (dose: 50.0 mg/kg/injection, schedule: Q01DX005 (ip), vehicle: saline) was 98 % of control; the T/C (dose: 100.0 mg/kg/injection, schedule: Q01DX005 (ip), vehicle: saline) is 102 % of control; the T/C (dose: 200.0 mg/kg/injection, schedule: Q01DX005 (ip), vehicle: saline) was 116 % of control.

Take `CC(C)c1ccc(C[n+]2ccccc2/C=N/O)cc1`: the T/C (dose: 12.5 mg/kg/injection, schedule: Q01DX005 (ip), vehicle: saline with Tween-80) is 100 % of control; the T/C (dose: 25.0 mg/kg/injection, schedule: Q01DX005 (ip), vehicle: saline with Tween-80) was 95 % of control; the T/C under setting [7] was 103 % of control.

Take `COC(=O)C1=CN(CCc2ccc(O)cc2)C(=O)C2C1CC(O)C2C` (stereo unspecified): the T/C is 99 % of control under setting [8]; 93 % of control under setting [9]; 94 % of control (dose: 30.0 mg/kg/injection, schedule: Q01DX005 (ip), vehicle: saline with Tween-80).

`Cc1ccc(O)c(C(c2cc(C)ccc2O)c2ccccc2Cl)c1`: the T/C under setting [10] was 108 % of control, the T/C under setting [1] was 108 % of control and the T/C under setting [2] is 103 % of control.

For `CCNC(=O)C#CC(=O)NCC`, the T/C by setting is: (dose: 50.0 mg/kg/injection, schedule: Q01DX009 (ip), vehicle: Klucel (hydroxypropylcellulose) (HPC)) 92 % of control; (dose: 100.0 mg/kg/injection, schedule: Q01DX009 (ip), vehicle: Klucel (hydroxypropylcellulose) (HPC)) 92 % of control; (dose: 200.0 mg/kg/injection, schedule: Q01DX009 (ip), vehicle: Klucel (hydroxypropylcellulose) (HPC)) 95 % of control.

Take `CCC1=C[C@H]2CN(CCc3c([nH]c4ccccc34)[C@@](C(=O)OC)(c3cc4c(cc3OC)N(C)[C@H]3[C@@](O)(C(=O)NC)[C@H](OC(C)=O)[C@]5(CC)C=CCN6CC[C@]43[C@@H]65)C2)C1`: the T/C (dose: 0.02 mg/kg/injection, schedule: Q01DX009 (ip), vehicle: water) was 102 % of control; the T/C (dose: 0.03 mg/kg/injection, schedule: Q01DX009 (ip), vehicle: water) was 100 % of control; the T/C (dose: 0.12 mg/kg/injection, schedule: Q04DX003 (ip), vehicle: water) was 151 % of control; the T/C (dose: 0.13 mg/kg/injection, schedule: Q01DX009 (ip), vehicle: water) is 114 % of control and 203 % of control; the T/C (dose: 0.25 mg/kg/injection, schedule: Q01DX001 (ip), vehicle: water) was 110 % of control; the T/C (dose: 0.25 mg/kg/injection, schedule: Q01DX009 (ip), vehicle: water) was 220 % of control and 192 % of control and 214 % of control. For the same compound, the T/C was 187 % of control (dose: 0.25 mg/kg/injection, schedule: Q04DX003 (ip), vehicle: water); 119 % of control (dose: 0.5 mg/kg/injection, schedule: Q01DX001 (ip), vehicle: water); 214 % of control (dose: 0.5 mg/kg/injection, schedule: Q04DX003 (ip), vehicle: water); 87 % of control (dose: 1.0 mg/kg/injection, schedule: Q01DX009 (ip), vehicle: water); 232 % of control (dose: 1.0 mg/kg/injection, schedule: Q04DX003 (ip), vehicle: water); 150 % of control (dose: 2.0 mg/kg/injection, schedule: Q01DX001 (ip), vehicle: water). For the same compound, the T/C is 154 % of control (dose: 4.0 mg/kg/injection, schedule: Q01DX001 (ip), vehicle: water) and 180 % of control (dose: 8.0 mg/kg/injection, schedule: Q01DX001 (ip), vehicle: water).

For `COc1ccc(/C=C/CC2Cc3cc4c(cc3OC2c2ccc(OC)cc2)OCO4)cc1` (stereo unspecified), the T/C under setting [11] was 93 % of control and the T/C under setting [8] was 90 % of control.

`COc1ccc(-c2nc(C)nc3c2Cc2c(ccc4ccccc24)O3)cc1`: the T/C reads like this: under setting [3], 98 % of control; under setting [4], 102 % of control; under setting [5], 102 % of control.

Take `Cc1noc(C)c1Br`: the T/C under setting [10] was 97 % of control, the T/C under setting [1] was 102 % of control and the T/C under setting [2] is 102 % of control.

As for `CCCCCCC(=O)CC(SCC)c1c(Cl)cccc1Cl` (stereo unspecified), the T/C runs as follows: under setting [10], 89 % of control; under setting [1], 98 % of control; under setting [2], 100 % of control.

Turning to `COC(=O)C12CCc3cc(OC)ccc3C1=CC(=O)C2` (stereo unspecified), the T/C reads like this: (dose: 50.0 mg/kg/injection, schedule: Q04DX003 (ip), vehicle: saline with Tween-80) 101 % of control; (dose: 100.0 mg/kg/injection, schedule: Q04DX003 (ip), vehicle: saline with Tween-80) 105 % of control; (dose: 200.0 mg/kg/injection, schedule: Q04DX003 (ip), vehicle: saline with Tween-80) 100 % of control; (dose: 400.0 mg/kg/injection, schedule: Q04DX003 (ip), vehicle: saline with Tween-80) 100 % of control.

On to `O=NN(CCCl)C(=O)Nc1cccc(O)c1`, for which the T/C reads like this: (dose: 66.0 mg/kg/injection, schedule: Q04DX003 (ip), vehicle: Klucel (hydroxypropylcellulose) (HPC)) 220 % of control; under setting [6], 240 % of control.

As for `NS(=O)(=O)c1ccc(N=NC2C(=O)N(c3ccccc3)C(=S)N(c3ccccc3)C2=O)cc1`, the T/C (dose: 60.0 mg/kg/injection, schedule: Q01DX005 (ip), vehicle: Klucel (hydroxypropylcellulose) (HPC)) is 100 % of control; the T/C under setting [12] is 106 % of control; the T/C (dose: 120.0 mg/kg/injection, schedule: Q01DX005 (ip), vehicle: Klucel (hydroxypropylcellulose) (HPC)) is 100 % of control; the T/C under setting [13] is 95 % of control; the T/C (dose: 240.0 mg/kg/injection, schedule: Q01DX005 (ip), vehicle: Klucel (hydroxypropylcellulose) (HPC)) is 91 % of control; the T/C under setting [14] was 92 % of control.

For the compound `C#CC(=O)CCC`, the T/C under setting [11] is 113 % of control, the T/C under setting [8] was 106 % of control and the T/C under setting [9] was 105 % of control.

Regarding `CCOC(=O)c1ccc(S(C)(=O)=O)cc1`, the T/C is, setting by setting: (dose: 25.0 mg/kg/injection, schedule: Q01DX009 (ip), vehicle: saline with Tween-80) 104 % of control; under setting [10], 95 % of control; under setting [1], 100 % of control; under setting [2], 100 % of control.

Turning to `Cc1cc2c3c(c1)C(C(F)(F)F)(C(F)(F)F)OI3OC2(C(F)(F)F)C(F)(F)F`, the T/C is 95 % of control (dose: 25.0 mg/kg/injection, schedule: Q01DX005 (ip), vehicle: Klucel (hydroxypropylcellulose) (HPC)); 95 % of control (dose: 50.0 mg/kg/injection, schedule: Q01DX005 (ip), vehicle: Klucel (hydroxypropylcellulose) (HPC)); 96 % of control (dose: 100.0 mg/kg/injection, schedule: Q01DX005 (ip), vehicle: Klucel (hydroxypropylcellulose) (HPC)); 97 % of control (dose: 200.0 mg/kg/injection, schedule: Q01DX005 (ip), vehicle: Klucel (hydroxypropylcellulose) (HPC)).

With `O=C(O)c1cscn1`, the T/C under setting [12] was 100 % of control, the T/C under setting [13] was 97 % of control and the T/C under setting [14] was 113 % of control.
